{"source": "patent US20230272357A1", "about": "“METHODS OF GENOME EDITING INCLUDING CONTROLLED OPENING OF CHROMATIN” (Wisconsin Alumni Research Foundation, priority 2021, published 2023)", "system": "on-target and top off-target sites of HIST1H2BJ-GFP, AAVS1 S10, EMX1", "assay": "Off-target analysis of edited iPSCs (CHANGE-seq/GUIDE-seq sites, rhAmpSeq)", "assay_type": "cell-based, human", "protocol": "Genome-wide, off-target analysis: Genomic DNA from iPSCs was isolated using Gentra® Puregene® Kit (Qiagen) according to the manufacturer's instructions. CHANGE-seq was performed as described in the art. Briefly, purified genomic DNA was tagmented with a custom Tn5-transposome to an average length of 400 bp, followed by gap repair with Kapa HiFi HotStart Uracil+DNA Polymerase (KAPA Biosystems) and Taq DNA ligase (NEB). Gap-repaired tagmented DNA was treated with USER™ enzyme (NEB) and T4 polynucleotide kinase (NEB). Intramolecular circularization of the DNA was performed with T4 DNA ligase (NEB) and residual linear DNA was degraded by a cocktail of exonucleases containing Plasmid-Safe ATP-dependent DNase (Lucigen), Lambda exonuclease (NEB), and Exonuclease I (NEB). In vitro cleavage reactions were performed with 125 ng of exonuclease-treated circularized DNA, 90 nM of SpCas9 protein (NEB), NEB buffer 3.1 (NEB) and 270 nM of sgRNA, in a 50 μL volume. Cleaved products were A-tailed, ligated with a hairpin adaptor (NEB), treated with USER™ enzyme (NEB), and amplified by PCR with barcoded universal primers NEBNext® Multiplex Oligos for Illumina® (NEB), using Kapa HiFi Polymerase (KAPA Biosystems). Libraries were quantified by qPCR (KAPA Biosystems) and sequenced with 151 bp paired-end reads on an Illumina® NextSeq instrument. CHANGE-seq data analyses were performed using open-source CHANGE-seq analysis software.\nTo determine the indel frequency at CHANGE-seq-identified off-target sites, on and off-target sites for were amplified from iPSC genomic DNA obtained using rhAmpSeg™ system (IDT), and sequencing libraries were generated according to the manufacturer's instructions. Sequencing was then performed with 150-bp paired-end reads on an Illumina® Miniseq instrument. Analysis was performed using CRISPAltRations: IDT rhAmpSeq CRISPR analysis tool.\nHighly sensitive genome-wide, off-target analysis for our TSA-based editing strategy was assayed by CHANGE-seq at HIST1H2BJ-GFP site, which yielded a frequency distribution of the potential off-target sites (FIG. 3A,B). Top 12 off-target sites were amplified from genomic DNA using the rhAmp-Seq system (IDT) and subsequently sequenced using the Illumina® MiniSeq™ system. Sequencing data was then analyzed using the CRISPAltRations tool, which allowed for quantitative analysis of observed indel mutations (data not shown). […] Furthermore, the highest normalized on-target edit ratio was obtained for TSA concentration of 6.25 ng/mL, representative of the optimal TSA concentration for generating gene editing iPSCs.", "key": {"[1]": {"details": "HIST1H2BJ-GFP, AAVS1 S10, EMX1, with TSA concentration, FIG. 3C-E"}}}
{"smiles": "CC(/C=C/C(=O)NO)=C\\[C@@H](C)C(=O)c1ccc(N(C)C)cc1", "note": "[TSA, Trichostatin A]", "values": [{"measurement": "TSA concentration giving highest normalized on-target edit ratio", "setting": "AAVS1 S10 and EMX1 loci", "result": 6.25, "unit": "ng/mL"}, {"measurement": "TSA concentration giving highest normalized on-target edit ratio", "setting": "HIST1H2BJ-GFP site", "result": 6.25, "unit": "ng/mL"}, {"measurement": "TSA concentration giving highest normalized on-target edit ratio", "setting": "HIST1H2BJ-GFP, AAVS1 S10, EMX1, FIG. 3C-E", "result": 6.25, "unit": "ng/mL"}, {"measurement": "Off-target indel %", "setting": "[1]", "result": "remains the same"}, {"measurement": "On-target indel %", "setting": "[1]", "result": "increases"}, {"measurement": "Indel % at off-target sites", "setting": "top 12 off-target sites of HIST1H2BJ-GFP, upon TSA treatment", "result": "did not increase"}, {"measurement": "Indel % at off-target sites", "setting": "top off-target sites for AAVS1 S10 and EMX1 loci", "result": "no significant increase"}]}
